Data: patent publication US20220306617A1, “SUBSTITUTED 1,3-PHENYL HETEROARYL DERIVATIVES AND THEIR USE IN THE TREATMENT OF DISEASE” (NOVARTIS AG, priority 2019, published 2022)
Structures can show the parent of a compound that is named as a salt.

Target: T1, abc isoform of human TMEM16A channel expressed in CHO cells (Homo sapiens, UniProt Q5XXA6, DEL476-501)
T1 construct: expressed in transfected cells; host or cells: CHO cells, doxycycline-inducible expression under Blasticidin/Zeocin selection
T1 sequence (Q5XXA6 with tags, fused parts or gaps isoform Q5XXA6-5 DEL539-564): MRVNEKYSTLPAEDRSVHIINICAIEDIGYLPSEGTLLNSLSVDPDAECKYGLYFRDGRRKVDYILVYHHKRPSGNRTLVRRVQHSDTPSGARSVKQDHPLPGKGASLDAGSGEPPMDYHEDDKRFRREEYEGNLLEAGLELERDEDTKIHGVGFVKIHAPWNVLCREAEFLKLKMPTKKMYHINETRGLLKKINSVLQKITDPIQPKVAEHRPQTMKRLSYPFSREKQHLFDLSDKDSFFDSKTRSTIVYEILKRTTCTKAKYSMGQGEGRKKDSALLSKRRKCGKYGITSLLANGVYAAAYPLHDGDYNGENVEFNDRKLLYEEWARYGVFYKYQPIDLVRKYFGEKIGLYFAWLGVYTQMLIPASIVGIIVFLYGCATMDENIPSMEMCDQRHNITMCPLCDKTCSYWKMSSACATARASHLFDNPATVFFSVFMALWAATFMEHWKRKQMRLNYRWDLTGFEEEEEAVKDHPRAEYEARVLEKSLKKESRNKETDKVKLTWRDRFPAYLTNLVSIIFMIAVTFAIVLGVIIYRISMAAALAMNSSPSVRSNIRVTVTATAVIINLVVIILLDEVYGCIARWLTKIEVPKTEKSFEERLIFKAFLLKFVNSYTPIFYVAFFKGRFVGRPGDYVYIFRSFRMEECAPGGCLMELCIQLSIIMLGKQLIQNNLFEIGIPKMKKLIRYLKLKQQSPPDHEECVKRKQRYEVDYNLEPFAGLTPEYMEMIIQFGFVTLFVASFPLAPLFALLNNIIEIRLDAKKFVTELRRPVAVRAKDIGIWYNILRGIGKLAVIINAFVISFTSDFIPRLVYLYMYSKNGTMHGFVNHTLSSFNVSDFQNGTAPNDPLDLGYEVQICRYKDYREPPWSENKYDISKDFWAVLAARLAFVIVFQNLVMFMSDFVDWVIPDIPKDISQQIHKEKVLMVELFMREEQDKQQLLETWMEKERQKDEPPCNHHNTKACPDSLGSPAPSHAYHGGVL
Assay: Automated patch clamping (QPatch) assay to measure TMEM16A activity in whole-cell
Type: cell-based
Details: for EC50: CHO cells expressing human TMEM16A (abc), whole-cell automated patch clamp, Hill fit, read-out: TMEM16A QPATCH assay EC50 V3 EC50; for Emax: CHO, maximum current at highest dose relative to reference potentiator at maximal concentration (upper limit) and vehicle (lower limit), read-out: TMEM16A QPATCH assay EC50 V3 Assay Window (% TMEM16A max activation)
Experimental: Automated Patch Clamping Assay to Measure TMEM16A Activity in Whole-Cell
Chinese hamster ovary cells (CHO) cells expressing abc isoform of human TMEM16A channel (Ref) were grown in vented cell-culture flasks (Corning) containing cell culture medium (1×F-12 Ham, 10% FBS, 1% Penicillin-streptomycin, 5 μg/mL Blasticidin S HCl, 400 μg/mL Zeocin), maintained at 37° C. in an incubator with 5% C02, 95% 02 and 100% humidity. The cells were passaged every 2-3 days at 80-90% confluence by aspirating the cell culture medium, washing twice with 10 mL D-PBS then incubating with 4 mL Trypsin-EDTA for no longer than 5 minutes. Trypsin was neutralized with the addition of 32 mL growth medium to the cell suspension, the cells were counted using a viable-cell counter (Vi-CELL; Beckmann-Coulter) and new flasks were seeded at a cell density of 0.01, 0.02, or 0.05×10^6 cells per cm2 for 3, 2, or 1 day(s) growth, respectively. Cell suspension was diluted in the new 175 cm2 flask with 50 mL of growth medium. Doxycycline was used to induce the expression of TMEM16A channel protein and was added directly to the culture flask 18-24 hours in advance of assay at a final concentration of 1 μg/mL. Induced cells were washed with D-PBS and detached from their culture flasks by adding 10 mL of Detachin and incubating for 10 minutes. Once detached, 5 mL of QPatch assay medium (1×CHO-S-SFM II (Sigma), 25 mM HEPES) was added and the resultant cell suspension counted using the Vi-CELL viable cell counter. The optimal cell density for this QPatch assay is 2-5×1 06 cells/mL; re-adjusted as necessary with QPatch assay medium.
The ion channel activity of TMEM16A (abc) expressed in CHO cells was assed using an automated patch clamp system (Qpatch, Sophion). These systems use planar patch-clamp technology to enable high-resistance, continuous whole-cell recordings from multiple cells in parallel, whilst maintaining each individual cell as an isolated experiment. First, each well was primed with intracellular and extracellular solutions described below. Cells were spun down, washed and then resuspended using extracellular solution. Intracellular solution: 130 mM N-methyl-D-glucamine, 10 mM EGTA, 20 mM CaCl2, 1 mM MgCl2, 10 mM HEPES 10, 10 mM BAPTA, 99 mM Sucrose, 2 mM Mg-ATP, pH 7.3, 320 mOsm Extracellular solution: 130 mM N-methyl-D-glucamine, 10 mM EGTA, 20 mM CaCl2, 1 mM MgCl2, 10 mM HEPES 10, 10 mM BAPTA, 99 mM Sucrose, 2 mM Mg-ATP, pH 7.3, 320 mOsm. Resuspended cells were then added to each well and suction was applied from the intracellular side in order to position a cell on the chip aperture, form a high resistance (GO) seal and achieve a whole-cell recording configuration. Following successful whole cell access, cell membranes were maintained at a voltage of −70 mV until the voltage protocol is applied. From this voltage, membranes were depolarized to +70 mV for 1500 ms, and then hyperpolarized to […] before being depolarized again from −90 to +70 mV in a continuous ramp waveform. At the end of the ramp, the membrane voltage is stepped back to −70 mV until the next waveform was applied. Compounds were dissolved at 10 mM in 100% DMSO and then diluted into extracellular solution (0.3% DMSO final) to the desired final concentration. The assay lower and upper limit were defined as follow, average amplitude (nA) of the last 3 sweeps in the vehicle addition of each cell was considered the basal current (lower limit); the average maximum current response in 3 cells for a reference potentiator at maximal concentration (upper limit). Current values for each compound concentration were then plotted against […]. EC50 curves are fitted to concentration-response data using curve-fitting functions (Hill fit) within the QPatch software. Curve fitting is constrained between the lowest concentration (vehicle-only addition) and the highest current value measured within the concentration range. […]

| EC50 [µM] | Emax [%] | SMILES |
| --- | --- | --- |
| 0.12 | 69 | CCC(CC)NC(=O)c1cnc(-c2cccc(-c3cc(C(=O)N[C@@H](C)C(C)(C)C)n[nH]3)c2)o1 [Example 3.35, (S)-2-(3-(3-((3,3-Dimethylbutan-2-Yl)Carbamoyl)-1H-Pyrazol-5-Yl)Phenyl)-N-(Pentan-3-Yl)Oxazole-5-Carboxamide Trifluoroacetate] |
| 0.42 | 105 | COC(=O)[C@@H](NC(=O)c1cnc(-c2cccc(-c3cc(C(=O)NC(C4CC4)C4CC4)n(CC(C)(C)O)n3)c2)o1)C(C)C [Example 9.4, (S)-Methyl 2-(2-(3-(5-((Dicyclopropylmethyl)Carbamoyl)-1-(2-Hydroxy-2-Methylpropyl)-1 H-Pyrazol-3-Yl)Phenyl)Oxazole-5-Carboxamido)-3-Methylbutanoate] |
| 0.23 | 82 | CCC(CC)NC(=O)c1cnc(-c2cccc(-c3cc(C(=O)N[C@H](C)C4CCCCC4)n[nH]3)c2)o1 [Example 3.44, (R)-2-(3-(3-((1-Cyclohexylethyl)Carbamoyl)-1H-Pyrazol-5-Yl)Phenyl)-N-(Pentan-3-Yl)Oxazole-5-Carboxamide] |
| 0.05 | 99 | CCC(CC)NC(=O)c1cnc(-c2cccc(-c3cc(C(=O)NC(C)(C4CC4)C(F)(F)F)n[nH]3)c2)o1 (stereo not drawn) [Example 3.8, 2-(3-(3-((2-Cyclopropyl-1,1,1-Trifluoropropan-2-Yl)Carbamoyl)-1H-Pyrazol-5-Yl)Phenyl)-N-(Pentan-3-Yl)Oxazole-5-Carboxamide] |
| 0.3 | 63 | C[C@H](NC(=O)c1nnc(-c2cccc(-c3ncc(C(=O)N[C@@H](C)C4CC4)o3)c2)[nH]1)C1CC1 [Example 12.0, N-((S)-1-Cyclopropylethyl)-2-(3-(5-(((S)-1-Cyclopropylethyl)Carbamoyl)-4H-1,2,4-Triazol-3-Yl)Phenyl)Oxazole-5-Carboxamide] |
| 0.07 | 70 | CCC(CC)NC(=O)c1cnc(-c2cccc(-c3cc(C(=O)NCC4(C)CC4)n[nH]3)c2)o1 [Example 3.13, 2-(3-(3-(((1-Methylcyclopropyl)Methyl)Carbamoyl)-1H-Pyrazol-5-Yl)Phenyl)-N-(Pentan-3-Yl)Oxazole-5-Carboxamide] |
| 0.55 | 81 | CCC(CC)NC(=O)c1cnc(-c2cccc(-c3cc(C(=O)NCc4ccc(F)cc4)n[nH]3)c2)o1 [Example 3.45, 2-(3-(3-((4-Fluorobenzyl)Carbamoyl)-1 H-Pyrazol-5-Yl)Phenyl)-N-(Pentan-3-yl)Oxazole-5-Carboxamide] |
| 0.17 | 54 | C[C@H](NC(=O)c1cc(-c2cccc(-c3ncc(C(=O)N[C@H](C)C4CC4)o3)c2)[nH]n1)C1CC1 [Example 1.8, N-((R)-1-Cyclopropylethyl)-2-(3-(3-(((S)-1-Cyclopropylethyl)Carbamoyl)-1H-Pyrazol-5-Yl)Phenyl)Oxazole-5-Carboxamide] |
| 0.07 | 119 | CC(C)[C@H](NC(=O)c1cnc(-c2cccc(-c3nnc(C(=O)N[C@@H](C)C4CC4)[nH]3)c2)o1)C(=O)OC(C)(C)C [Example 12.4, (S)-Tert-Butyl 2-(2-(3-(5-(((S)-1-Cyclopropylethyl)Carbamoyl)-4H-1,2,4-Triazol-3-Yl)Phenyl)Oxazole-5-Carboxamido)-3-Methylbutanoate] |
| 0.87 | 62 | CCC(CC)NC(=O)c1cc(-c2cccc(-c3ncc(C(=O)Nc4ccon4)o3)c2)[nH]n1 [Example 1.30, N-(Isoxazol-3-Yl)-2-(3-(3-(Pentan-3-Ylcarbamoyl)-1 H-Pyrazol-5-yl)Phenyl)Oxazole-5-Carboxamide] |
| 0.08 | 155 | CCC(CC)NC(=O)c1cnc(-c2cccc(-c3cc(C(=O)N[C@@H](C)C4CC4)n(CC(O)C(F)(F)F)n3)c2)o1 (stereo partly drawn) [Example 9.1, 2-(3-(5-(((S)-1-Cyclopropylethyl)Carbamoyl)-1-(3,3,3-Trifluoro-2-Hydroxypropyl)-1H-Pyrazol-3-Yl)Phenyl)-N-(Pentan-3-Yl)Oxazole-5-Carboxamide] |
| 0.35 | 84 | CCC(CC)NC(=O)c1cnc(-c2cccc(-c3cc(C(=O)NC(Cc4ccccc4)C(=O)OC)n[nH]3)c2)o1 (stereo not drawn) [Example 3.28, Methyl 2-(5-(3-(5-(Pentan-3-Ylcarbamoyl)Oxazol-2-Yl)Phenyl)-1H-Pyrazole-3-Carboxamido)-3-Phenylpropanoate] |
| 0.03 | 83 | CCOC(=O)[C@@H](NC(=O)c1cnc(-c2cccc(-c3cc(C(=O)N[C@@H](CC(C)C)C(=O)OC)n[nH]3)c2)o1)C(C)C [Example 2.1, (S)-Methyl 2-(5-(3-(5-(((S)-1-Ethoxy-3-Methyl-1-Oxobutan-2-yl)Carbamoyl)Oxazol-2-Yl)Phenyl)-1H-Pyrazole-3-Carboxamido)-4-Methylpentanoate] |
| 0.94 | 77 | CCC(CC)NC(=O)c1cnc(-c2cccc(-c3cc(C(=O)N4CCC(C)(OC)CC4)n[nH]3)c2)o1 [Example 3.47, 2-(3-(3-(4-Methoxy-4-Methylpiperidine-1-Carbonyl)-1H-Pyrazol-5-yl)Phenyl)-N-(Pentan-3-Yl)Oxazole-5-Carboxamide] |

| SMILES | EC50 [µM] | Emax [%] |
| --- | --- | --- |
| CCOC(=O)[C@@H](NC(=O)c1cc(-c2cccc(-c3ncc(C(=O)NC(CC)CC)o3)c2)nn1CCOP(=O)(OCC)OCC)C(C)C [Example 11.0, (S)-Ethyl 2-(1-(2-((Diethoxyphosphoryl)Oxy)Ethyl)-3-(3-(5-(Pentan-3-Ylcarbamoyl)Oxazol-2-Yl)Phenyl)-1H-Pyrazole-5-Carboxamido)-3-Methylbutanoate] | 0.61 | 128 |
